From BindingDB's records for doi:10.1016/s0028-3908(96)00171-2 (Smithkline Beecham Pharmaceuticals, 1997)

Target: 5-hydroxytryptamine receptor 6 (Homo sapiens, UniProt P50406)
Sequence (P50406 whole entry): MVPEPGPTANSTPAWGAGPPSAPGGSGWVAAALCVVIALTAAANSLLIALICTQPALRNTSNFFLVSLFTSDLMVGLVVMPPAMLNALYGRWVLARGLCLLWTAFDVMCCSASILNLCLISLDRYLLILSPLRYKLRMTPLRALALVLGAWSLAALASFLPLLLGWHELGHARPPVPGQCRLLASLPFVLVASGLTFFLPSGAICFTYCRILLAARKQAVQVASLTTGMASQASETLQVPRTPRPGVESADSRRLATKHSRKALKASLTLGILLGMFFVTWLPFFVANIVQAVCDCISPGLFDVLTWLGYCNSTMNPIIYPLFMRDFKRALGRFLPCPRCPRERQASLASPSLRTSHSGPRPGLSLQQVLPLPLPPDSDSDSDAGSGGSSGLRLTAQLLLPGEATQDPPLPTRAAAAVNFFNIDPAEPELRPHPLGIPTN

Q: Which Ki does the source give for CC(N)Cc1c[nH]c2ccc(OCc3cccs3)cc12 (stereo unspecified) [NSC_5311036] here?
A: Its Ki is 398 nM.
